Values after ≈ are worked out from the molar mass of the structure shown. Values joined by “and” are separate entries in the source; they are usually repeats but may differ in a detail not shown here. Equal entries are not always repeated.
Assays:
[1] = test system: Candida parapsilosis; test: MIC determination, micro-dilution method; assay type: cell-based; conditions: Lodderomyces parapsilosis, read-out: Minimum Inhibitory Concentration
Excerpt: (§1) Mouth microbial representatives including unicellular fungi; Candida albicans (RCMB 05382), Candida glabrata (RCMBA 05386), Candida parapsilosis (RCMBA 06002), Candida tropicalis (RCMB 05384), Gram-positive bacteria; Lactobacillus acidophilus (RCMBA 4267), Streptococcus gordonii (RCMBA 2004), Streptococcus mutans (RCMBA 4131), and Gram-negative bacteria; Pseudomonas aeruginosa (RCMBA 1002) were obtained from the Regional Center for Mycology and Biotechnology (RCMB), Al-Azhar University, Cairo, Egypt, as test organisms.
(§2) The minimum inhibitory concentration (MIC) was determined by micro-dilution method using serially diluted (2 folds) extract and isolated compound. MIC of the extract was determined by dilution of extract and isolated compound of concentrations of 0.0-1000 µg/ml. Equal volume of each extract and nutrient broth were mixed in a test tube. Specifically 0.1 ml of standardized inoculum (1-2 X 10^7 CFU/ml) was added in each tube. The tubes were incubated at 37°C for 24-48 h. Two control tubes containing the growth medium, saline and the inoculum were maintained for each test batch. The lowest concentration (highest dilution) of the extract that produced no visible microbial growth (no turbidity) when compared with the control tubes were regarded as MIC.

[2] = test system: Candida glabrata; test: MIC determination, micro-dilution method; assay type: cell-based
Excerpt: as §1, §2

[3] = test system: Candida tropicalis; test: MIC determination, micro-dilution method; assay type: cell-based; conditions: for MIC: read-out: Minimum Inhibitory Concentration
Excerpt: as §1, §2

[4] = test system: Candida parapsilosis; test: Antimicrobial activity, well diffusion method; assay type: cell-based; conditions: 5mg/ml of sample around well (6 mm), mean ± Standard deviation
Excerpt: (§3) Mouth microbial representatives including unicellular fungi; Candida albicans (RCMB 05382), Candida glabrata (RCMBA 05386), Candida parapsilosis (RCMBA 06002), Candida tropicalis (RCMB 05384), Gram-positive bacteria; Lactobacillus acidophilus (RCMBA 4267), Streptococcus gordonii (RCMBA 2004), Streptococcus mutans (RCMBA 4131), and Gram-negative bacteria; Pseudomonas aeruginosa (RCMBA 1002) were obtained from the Regional Center for Mycology and Biotechnology (RCMB), Al-Azhar University, Cairo, Egypt, as test organisms. Antimicrobial activity was determined by the well diffusion method. Petri plates contained 20 ml of Nutrient (for bacteria) or Malt extract (for fungi). Agar medium were seeded with 1-3 day cultures of microbial inoculums (1-2 X 10^7 CFU/ml). […] The assessment of antimicrobial activity was based on measurement of the diameter of the inhibition zone formed around the well.

[5] = test system: Candida albicans; test: Antimicrobial activity, well diffusion method; assay type: cell-based; conditions: 5mg/ml of sample around well (6 mm), mean ± Standard deviation
Excerpt: as §3

[6] = test system: Candida glabrata; test: Antimicrobial activity, well diffusion method; assay type: cell-based; conditions: 5mg/ml of sample around well (6 mm), mean ± Standard deviation
Excerpt: as §3

[7] = test system: Candida tropicalis; test: Antimicrobial activity, well diffusion method; assay type: cell-based; conditions: 5mg/ml of sample around well (6 mm), mean ± Standard deviation
Excerpt: as §3

[8] = test system: Candida albicans; test: In-vitro activity in combination with Coe-Comfort tissue conditioner, CFU count; assay type: cell-based; conditions: for concentration giving total growth inhibition: C. albicans, in combination with Coe-comfort tissue conditioner; for No. colony-forming units (CPU): Candida albicans, mixed with Coe-Comfort
Protocol: The Coe-Comfort tissue conditioner was mixed according to the proportions indicated by the manufacturers. In detail, Coe-comfort™ tissue conditioner is formed by dispensing 5 ml of Coe-comfort liquid into a disposable mixing cup. The red measure level is filled with about 6 g of Coe-comfort powder and is then slowly added to the liquid. The obtained mixture is blended for 30 seconds and setted aside for approximately one minute until it flows sluggishly from a spatula. Using less liquid gives a thicker, faster setting mix and vice versa. […] The extract and isolated compound/conditioner mixture was homogenized in a sterile glass beaker for 30 seconds. Immediately afterwards, the conditioning powder was added and mixed for 40 seconds and then poured onto a Petri plate. Once the mixture solidified, the surface was covered with 4 ml of Sabouraud agar, and after 30 minutes, inoculated with 20 µl of an appropriate dilution of Candida. The plates were incubated at 37°C for 24 hours and then the CFUs were counted. The experiment was performed in triplicate. For the conditioner Coe-Comfort, the control was unmodified conditioner.

[9] = test system: Streptococcus gordonii; test: MIC determination, micro-dilution method; assay type: cell-based; conditions: read-out: Minimum Inhibitory Concentration
Excerpt: as §1, §2

[10] = test system: Lactobacillus acidophilus; test: MIC determination, micro-dilution method; assay type: cell-based
Excerpt: as §1, §2

[11] = test system: Streptococcus mutans; test: MIC determination, micro-dilution method; assay type: cell-based; conditions: read-out: Minimum Inhibitory Concentration
Excerpt: as §1, §2

[12] = test system: Candida albicans; test: MIC determination, micro-dilution method; assay type: cell-based; conditions: read-out: Minimum Inhibitory Concentration
Excerpt: as §1, §2

[13] = test system: Pseudomonas aeruginosa; test: MIC determination, micro-dilution method; assay type: cell-based; conditions: read-out: Minimum Inhibitory Concentration
Excerpt: as §1, §2

[14] = test system: Streptococcus gordonii; test: Antimicrobial activity, well diffusion method; assay type: cell-based; conditions: 5mg/ml of sample around well (6 mm), mean ± Standard deviation
Excerpt: as §3

[15] = test system: Lactobacillus acidophilus; test: Antimicrobial activity, well diffusion method; assay type: cell-based; conditions: 5mg/ml of sample around well (6 mm), mean ± Standard deviation
Excerpt: as §3

[16] = test system: Streptococcus mutans; test: Antimicrobial activity, well diffusion method; assay type: cell-based; conditions: 5mg/ml of sample around well (6 mm), mean ± Standard deviation
Excerpt: as §3

[17] = test system: Pseudomonas aeruginosa; test: Antimicrobial activity, well diffusion method; assay type: cell-based; conditions: 5mg/ml of sample around well (6 mm), mean ± Standard deviation
Excerpt: as §3

[18] = Sub-chronic toxicity, liver and kidney function; assay type: in vivo, Male Wister rats; conditions: rats; oral daily for 15 days; extract 500 mg/kg, isolated compound 50 mg/kg; serum 6 hr after the last dose
Protocol: Male Wister rats (150-180 g) were divided into 3 equal groups each of 10 rats. Rats of the 1st group received the vehicle in a dose of 5 mL/kg and left as normal control. Rats of the 2nd and 3rd groups were administered the ethanolic extract of the investigated fungi (500 mg/kg) and the isolated compound (50 mg/kg). All medications were administered orally daily for 15 consecutive days. Animals were maintained under identical conditions with food and water ad libitum for the entire period with close observation. At the end of the experimental period, blood samples were collected from the orbital plexus of rats, 6 hr after the last dose. Samples were left to clot at room temperature for 20 min. The obtained sera were collected and used to determine the activity of AST and ALT. Levels of urea and creatinine were also estimated.

[19] = test system: S. mutans; test: In-vitro activity in combination with Coe-Comfort tissue conditioner; assay type: cell-based, Streptococcus mutans
[20] = test system: Lactobacillus acidophilus; test: In-vitro activity in combination with Coe-Comfort tissue conditioner, CFU count; assay type: cell-based; conditions: for No. colony-forming units (CFU): mixed with Coe-Comfort
[21] = test system: Streptococcus gordonii; test: In-vitro activity in combination with Coe-Comfort tissue conditioner; assay type: cell-based

With `C[C@@H]1[C@H](O)[C@@H](C)/C=C/C=C/C=C/C=C/C=C/C=C/C=C/[C@H](O[C@@H]2O[C@H](C)[C@@H](O)[C@H](N)[C@@H]2O)C[C@@H]2O[C@](O)(C[C@@H](O)C[C@@H](O)[C@H](O)CC[C@@H](O)C[C@@H](O)CC(=O)O[C@H]1C)C[C@H](O)[C@H]2C(=O)O` [Amphotericin B, reference compound] the MIC [1] was 0.49 mg/L (≈ 0.53 µM), the MIC ([2]; Nakaseomyces glabratus, read-out: Minimum Inhibitory Concentration) was 1.95 mg/L (≈ 2.11 µM) and the MIC [3] was 0.12 mg/L (≈ 0.13 µM). For the same compound, the “Diameter of inhibition zone” value [4] was 23.2 ± 0.53 mm, the “Diameter of inhibition zone” value [5] was 21.3± 0.14 mm and the “Diameter of inhibition zone” value [6] was 20.4± 0.87 mm. For the same compound, the “Diameter of inhibition zone” value [7] was 24.6± 0.27 mm, the “concentration giving total growth inhibition” value [8] was 7.81 µg/mL and the “No. colony-forming units (CPU)” value ([8]; concentration 000.49 µg/ml) was 9.1 x 10^4. For the same compound, the “No. colony-forming units (CPU)” value ([8]; concentration 000.98 µg/ml) was 8.9 x 10^4, the “No. colony-forming units (CPU)” value ([8]; concentration 001.95 µg/ml) was 9.3 x 10^3 and the “No. colony-forming units (CPU)” value ([8]; concentration 003.90 µg/ml) was 8.1 x 10^2. The “No. colony-forming units (CPU)” value ([8]; concentration 007.81 µg/ml) was 00.00, the “No. colony-forming units (CPU)” value ([8]; concentration 015.63 µg/ml) was 00.00 and the “No. colony-forming units (CPU)” value ([8]; concentration 031.25 µg/ml) was 00.00. The “No. colony-forming units (CPU)” value ([8]; concentration 062.50 µg/ml) was 00.00.

For `C/C=C(/C)C1CCC2C(C1)CC(C)C1C2C=C(C)C2C3CC(C=C(C)C)CC3C(O)CC21` (stereo not drawn) [Isolated compound, 9-((Z)-but-2-en-2-yl)-2,3,3a,4,5,5a;5b,6,7,7a,8,9,10,11,11a,11b,13a,13b-octadecahydro-6,13-dimethyl-2-(2-methylprop-1-enyl)-1H-cyclopenta[a]chrysen-4-ol], the MIC [9] was 3.9 mg/L (≈ 8.93 µM), the “Minimum Inhibitory Concentration” value [10] was 000.24 µg/mL and the MIC ([10]; read-out: Minimum Inhibitory Concentration) was 0.24 mg/L (≈ 0.55 µM). It also gave an MIC [1] of 1.95 mg/L (≈ 4.47 µM), an MIC [11] of 0.98 mg/L (≈ 2.24 µM) and an MIC [12] of 7.81 mg/L (≈ 17.9 µM). For the same compound, the MIC [13] was 15.6 mg/L (≈ 35.8 µM), the “Minimum Inhibitory Concentration” value ([2]; Candida glabrata) was 000.00 µg/mL and the “Minimum Inhibitory Concentration” value [3] was 000.49 µg/mL. For the same compound, the MIC [3] was 0.49 mg/L (≈ 1.12 µM), the “Diameter of inhibition zone” value [14] was 20.3 ± 0.72 mm and the “Diameter of inhibition zone” value [15] was 23.9 ± 0.37 mm. The “Diameter of inhibition zone” value [4] was 21.3 ± 0.58 mm, the “Diameter of inhibition zone” value [16] was 22.1± 0.72 mm and the “Diameter of inhibition zone” value [5] was 19.3 ± 0.63 mm. For the same compound, the “Diameter of inhibition zone” value [17] was 18.2± 0.63 mm, the “Diameter of inhibition zone” value [6] was 00.0 mm and the “Diameter of inhibition zone” value [7] was 22.4 ± 0.58 mm. The “effect on the activity of alanine aminotransferase (ALT)” value [18] was “did not show any significant effect”, the “effect on the activity of aspirate aminotransferase (AST)” value [18] was “did not show any significant effect” and the “effect on the levels of blood urea” value [18] was “did not show any significant effect”. The “effect on the levels of serum creatinine” value [18] was “did not show any significant effect”, the “concentration giving total growth inhibition” value [19] was 125 µg/mL and the “concentration giving total growth inhibition” value [8] was 7.81 µg/mL. The “No. colony-forming units (CPU)” value ([8]; concentration 000.24 µg/ml) was 9.1 x 10^4, the “No. colony-forming units (CPU)” value ([8]; concentration 000.49 µg/ml) was 5.2 x 10^4 and the “No. colony-forming units (CPU)” value ([8]; concentration 000.98 µg/ml) was 6.3 x 10^3. The “No. colony-forming units (CPU)” value ([8]; concentration 001.95 µg/ml) was 1.0 x 10^3, the “No. colony-forming units (CPU)” value ([8]; concentration 003.90 µg/ml) was 2.3 x 10^2 and the “No. colony-forming units (CPU)” value ([8]; concentration 007.81 µg/ml) was 00.00. For the same compound, the “No. colony-forming units (CPU)” value ([8]; concentration 015.63 µg/ml) was 00.00, the “No. colony-forming units (CPU)” value ([8]; concentration 031.25 µg/ml) was 00.00 and the “No. colony-forming units (CPU)” value ([8]; concentration 062.50 µg/ml) was 00.00. The “concentration giving total growth inhibition” value ([20]; in combination with Coe-comfort tissue conditioner) was 7.81 µg/mL, the “No. colony-forming units (CFU)” value ([20]; concentration 000.24 µg/ml) was 8.2 x 10^5 and the “No. colony-forming units (CFU)” value ([20]; concentration 000.49 µg/ml) was 9.7 x 10^4. The “No. colony-forming units (CFU)” value ([20]; concentration 000.98 µg/ml) was 4.8 x 10^4, the “No. colony-forming units (CFU)” value ([20]; concentration 001.95 µg/ml) was 3.4 x 10^3 and the “No. colony-forming units (CFU)” value ([20]; concentration 003.90 µg/ml) was 4.1 x10^2. The “No. colony-forming units (CFU)” value ([20]; concentration 007.81 µg/ml) was 00.00, the “No. colony-forming units (CFU)” value ([20]; concentration 015.63 µg/ml) was 00.00 and the “No. colony-forming units (CFU)” value ([20]; concentration 031.25 µg/ml) was 00.00. For the same compound, the “No. colony-forming units (CFU)” value ([20]; concentration 062.50 µg/ml) was 00.00 and the “concentration giving total growth inhibition” value [21] was 62.50 µg/mL and 62.5 µg/mL.
